The source of these data is patent US5776859A, “Sodium channel active novel compounds and related processes and bioassay techniques” (priority 1995, dated 1998).

SMILES strings stand for the structures. Like-named read-outs stand apart in the source and are kept apart here.

For data set [1], the system named is sodium channel. The data set is described as follows: Temperature-dependent circular dichroism at 222 nM (helix-coil transition). The following applies: 222 nm wavelength; for % Loss of Helix (35° to 40° C.) / % Loss of Helix (30° to 35° C.): fresh AChE; for % Loss of Helix (35° to 40° C.): control 4.7 (pilocarpine), 4.6 (lidocaine); for % Loss of Helix (30° to 35° C.): control 21.8 (pilocarpine), 12.1 (lidocaine); for effect on alpha helix from 35° C. to 40° C. / effect on helical transition normally observed between 30°-35° C.: beef brain nerve cell protein preparation; for effect on helical transition normally observed between 30°-35° C.: 15° C. to 60° C. It is filed as biochemical, beef (bovine brain). An excerpt:
As disclosed in PCT/US93/05792, published Jan. 6, 1994, one can identify compounds with potential analgesic effect by using circular dichroism to bioassay the interaction of molecules with ion channels, including sodium channels. Likewise, this bioassay technique is applicable to the thiophene compounds of the present invention.
To perform this method, solubilized nerve cell membrane proteins and acetylcholinesterase are purified using ion exchange and size exclusion chromatography. Then, one forms a mixture of a nerve cell protein and a compound capable of blocking or preventing the normal function of preferably the sodium channel in an excitable cell, and subjects that mixture to circular dichroism at a wave length of […] wave length. The transition of molar ellipticity is measured while varying the temperature of the mixture between 25°-50° C. The transition of molar ellipticity of the mixture is compared with the transition of molar ellipticity of a control nerve cell protein without the compound capable of blocking or preventing the normal function of the sodium channel in an excitable cell. The alpha helix content, as measured at […], is used to monitor the effect of temperature change on the ion channel's conformational change.
However, when a sodium channel active molecule is added to the membrane preparation, the temperature-dependent helix transition observed using circular dichroism is altered. […] These compounds, therefore, seem to stabilize the helix conformation of the sodium channel and to prevent the temperature-dependent uncoiling of alpha helix between 30° C.-35° C.

For data set [2] the following is noted: cardiac patients, routine therapeutic administration of lidocaine; cited from earlier work.
In data set [3] the test system is rats. The following applies: cited from earlier work.
The test system of data set [4] is mice. To be noted: cited from earlier work.
The test system of data set [5] is Salmonella strains TA98, TA100, TA1535 and TA97. The following applies: cited from earlier work.
Data set [6] deals with Fischer rats. The following applies: cited from earlier work.
In data set [7] the test system is B6C3FI mice. The following applies: cited from earlier work.
Data set [8] concerns animal. To be noted: in vivo; cited from earlier work.
Where [9] appears, read: surviving female mice, relative to controls.

As for `CC[C@@H]1C(=O)OC[C@@H]1Cc1cncn1C` [Pilocarpine], in data set [1], the “% Loss of Helix (35° to 40° C.)” value was determined as 17.5%, the “% Loss of Helix (30° to 35° C.)” value is given as 7.1%, the “effect on alpha helix from 35° C. to 40° C.” value is “the alpha helix uncoils to equal the helix in the control sample” and the “effect on helical transition normally observed between 30°-35° C.” value is “prevented the helical transition normally observed between 30°-35 °C”.
Consider `CCN(CC)CC(=O)Nc1c(C)cccc1C` [Lidocaine], for which, in data set [1], the “% Loss of Helix (35° to 40° C.)” value came out at 13.6%, the “% Loss of Helix (30° to 35° C.)” value is 1.8%, the “effect on alpha helix from 35° C. to 40° C.” value was “the alpha helix uncoils to equal the helix in the control sample” and the “effect on helical transition normally observed between 30°-35° C.” value is “prevented the helical transition normally observed between 30°-35 °C”. Further, the “2,6-xylidine in human serum hemoglobin adduct” value in data set [2] is “high levels of 2,6-xylidine”.
Turning to `Cc1ccccc1N.Cl` [ortho-toluidine hydrochloride], the carcinogenicity entry in data set [3] is “carcinogenic in rats and mice”; in data set [4] it was “carcinogenic in rats and mice”.
As to `c1ccsc1` [thiophene], the mutagenicity result in data set [5] is reported as “does not function as a mutagen in this assay”. Further, in data set [6] (all dose groups of both sexes surviving until study termination), the “absolute lung weight and lung to brain weight ratio” value was “decrease in the absolute lung weight and in the lung to brain weight ratio”. Further, the mortality result in data set [6] (male rats, 2000 and 4000 ppm, first week) was “mortality also occurred in the 2000 and 4000 ppm male exposure groups”; in data set [6] (rats, 8000 ppm, one exposure), “All rats exposed to 8000 ppm died following one exposure”; in data set [7] (female mice, 8000 ppm and 4000 ppm), “Total mortality”. The “group mean body weight” value in data set [6] (rats of both sexes, relative to control) is recorded as “dose-related depression in group mean body weight relative to control”. Also, the “clinical signs of toxicity” value in data set [6] (rats, 4000 ppm) is “rough haircoat, ocular discharge, nasal discharge, dyspnea, and staggering gait”. In addition, in data set [6] (rats, 4000 ppm), the “microscopic examination, lung” value is “chronic active inflammation of the lung”. Also, the “microscopic examination, liver” value in data set [6] (rats, all exposure groups, severity increasing with dose) is “necrotizing inflammation of the liver in all exposure groups with severity increasing with dose”. Further, in data set [6] (summary of rat and mice studies, extremely high inhalation doses), the “toxicity to liver and lung” value is “shows toxicity to liver and lung”. In data set [7] (female mice, 1000 ppm and 500 ppm), the survival result is “survived the study”. For the same compound, the “female mice died as a result of exposures” value in data set [7] (female mice, 2000 ppm) is 2/10. In data set [7] (male mice, all exposure levels, single exposure), the survival / mortality entry is “died or were terminated in moribund condition following a single exposure”. Further, the “microscopic pathology, hepatocytes” value is on record as “centrilobular degeneration of hepatocytes” in data set [7] (mice that died early (within several hours after first exposure)) and “centrilobular necrosis of hepatocytes” in data set [7] (surviving mice, all exposure levels). In addition, the “microscopic pathology, cause of mortality” value in data set [7] (mice) was “mortality was attributed to liver toxicity”. In data set [7] (mice), the “other exposure-related microscopic lesions” value is listed as “No other exposure-related microscopic lesions were found”. The “microscopic pathology, nose and nasal cavity” value in data set [7] (mice, more severe in mice that survived the study) is “Necrotizing inflammation of the nose and nasal cavity”. Also, the “liver absolute and relative organ weights (liver-to-body and liver-to-brain weight ratios)” value in data set [7] (setting [9]) was “increased relative to the controls”. The “thymus organ weight parameters” value in data set [7] (setting [9]) was “reduced”. For the same compound, the “mean body weights or mean lung weights” value in data set [7] (surviving female mice) is recorded as “did not affect mean body weights or mean lung weights”. Also, the signs of toxicity entry was “hypoactivity and abnormal posture” in data set [7] (surviving mice, 500 ppm and 1000 ppm); “dyspnea” in data set [7] (surviving mice, 2000 ppm).
For the compound `Cc1cccc(C)c1N` [2,6-xylidine], in data set [8], the carcinogenicity result is “established animal and probable human carcinogen”.
